From patent publication US9284321B2, “Piperazino[1,2-a]indol-1-ones and [1,4]diazepino[1,2-a]indol-1-one” (Hoffmann-La Roche Inc., priority 2012, dated 2016)

Legend:
[1] = system: human embryonic stem cell derived neural stem cells (NSCs); assay: Neural Stem Cell Proliferation Assay (neurogenesis assay, ATP levels by CellTiterGlo); assay type: cell-based; conditions: 96 h, compound concentration at which 150% activity of control (100%) is reached, NSC proliferation by ATP level after 4 days incubation, dose response 8 μM to 8 nM
Protocol: Neurogenic properties of small molecules are determined based on the proliferation of human embryonic stem cell derived neural stem cells (NSCs) which were derived via a dual smad inhibition as previously described (Chambers, S. M., et al., Highly efficient neural conversion of human ES and iPS cells by dual inhibition of SMAD signaling, Nature biotechnology, 2009. 27(3): p. 275-80.)
Compounds respond is measured by the increase in cells based on ATP levels
(Promega:CellTiterGlo®) after an incubation period of 4 days.
NSCs are thawed and expanded over 3 passages. On the 14th day, NSCs are seeded in Polyornithin/Laminin coated 384 well plates at a cell density of 21′000 cells/cm^2 in a media volume of 38 μl.
4 hours after cell seeding, compound solutions are added at a volume of 2 μl. Stock solutions of the compounds (water, 5% DMSO) are diluted to obtain a dose response (11 points, dilution factor is 2), ranging from 8 μM to 8 nM. Controls are run to consistently determine the neurogenic properties of the cells:
Negative (neutral) control is cell culture Media (final DMSO concentration: 0.25%).
• 1. cell culture Media+100 ng/ml FGF2 (final DMSO concentration: 0.1%) • 2. cell culture Media+20 ng/ml EGF (final DMSO concentration: 0.1%) • 3. cell culture Media+100 ng/ml Wnt3a (final DMSO concentration: 0.1%)
After 4 days incubation at 37° C., 5% CO2, the amount of ATP per well is quantified. The ATP concentration is proportional to the cell number. ATP is quantified by using the Promega CellTiterGlo® kit. The CellTiterGlo® reagents contain a cell lysis buffer, a thermo stable luciferase (UltraGlo™ recombinant luciferase), magnesium and luciferin. Luciferin reacts with ATP producing oxyluciferin, AMP and light. The luminescence signal is proportional to the ATP content.
The value of negative (neutral) control is determined for each assay plate by taking the average of 16 negative control wells. The neurogenic compound response is calculated for each compound as (compound/Negative Control)*100.
The values of EC150 from the dose response curve are determined for each test compound. The EC150 is the compound concentration at which 150% activity of control (100%) is reached.

Row | Compound | melting point | EC (150% of control) [1]
1 | C[C@@H]1CNC(=O)c2cc3cccc(-c4ccccc4)c3n21 [Example 1, (R)-4-Methyl-6-phenyl-3,4-dihydro-2H-pyrazino[1,2-a]indol-1-one] | 239 °C | 3.97 µM
2 | COc1ccc(-c2cccc3cc4n(c23)[C@H](C)CNC4=O)cc1 [Example 2, (R)-6-(4-Methoxy-phenyl)-4-methyl-3,4-dihydro-2H-pyrazino[1,2-a]indol-1-one] | 247 °C | 0.85 µM
3 | C[C@@H]1CNC(=O)c2cc3cccc(-c4ccncc4)c3n21 [Example 3, (R)-4-Methyl-6-pyridin-4-yl-3,4-dihydro-2H-pyrazino[1,2-a]indol-1-one] | 264 °C | 2.31 µM
4 | C[C@@H]1CNC(=O)c2cc3cc(F)cc(-c4ccccc4)c3n21 [Example 4, (R)-8-Fluoro-4-methyl-6-phenyl-3,4-dihydro-2H-pyrazino[1,2-a]indol-1-one] | 243.5 °C | 0.37 µM
5 | COc1ccc(-c2cc(F)cc3cc4n(c23)[C@H](C)CNC4=O)cc1 [Example 5, (R)-8-Fluoro-6-(4-methoxy-phenyl)-4-methyl-3,4-dihydro-2H-pyrazino[1,2-a]indol-1-one] | 228.5 °C | 0.034 µM
6 | C[C@@H]1CNC(=O)c2cc3cc(F)cc(-c4ccc(F)cc4)c3n21 [Example 6, (R)-8-Fluoro-6-(4-fluoro-phenyl)-4-methyl-3,4-dihydro-2H-pyrazino[1,2-a]indol-1-one] | 276 °C | 0.22 µM
7 | C[C@@H]1CNC(=O)c2cc3cc(F)cc(-c4ccncc4)c3n21 [Example 7, (R)-8-Fluoro-4-methyl-6-pyridin-4-yl-3,4-dihydro-2H-pyrazino[1,2-a]indol-1-one] | 294.5 °C | 0.4 µM
8 | Cc1ccc(-c2cc(F)cc3cc4n(c23)[C@H](C)CNC4=O)cc1 [Example 8, (R)-8-Fluoro-4-methyl-6-p-tolyl-3,4-dihydro-2H-pyrazino[1,2-a]indol-1-one] | 294.5 °C | 0.048 µM
9 | C[C@@H]1CNC(=O)c2cc3cc(F)cc(-c4cc(F)cc(F)c4)c3n21 [Example 9, (R)-6-(3,5-Difluoro-phenyl)-8-fluoro-4-methyl-3,4-dihydro-2H-pyrazino[1,2-a]indol-1-one] | 229.5 °C | 0.37 µM
10 | C[C@@H]1CNC(=O)c2cc3cc(F)cc(-c4ccc(F)c(F)c4)c3n21 [Example 10, (R)-6-(3,4-Difluoro-phenyl)-8-fluoro-4-methyl-3,4-dihydro-2H-pyrazino[1,2-a]indol-1-one] | 267 °C | 0.22 µM
11 | C[C@@H]1CNC(=O)c2cc3cc(F)cc(-c4ccc(Cl)cc4)c3n21 [Example 11, (R)-6-(4-Chloro-phenyl)-8-fluoro-4-methyl-3,4-dihydro-2H-pyrazino[1,2-a]indol-1-one] | 282.5 °C | 0.1 µM
12 | O=C1NCCn2c1cc1cc(F)cc(-c3ccccc3)c12 [Example 12, 8-Fluoro-6-phenyl-3,4-dihydro-2H-pyrazino[1,2-a]indol-1-one] | 236.5 °C | 0.037 µM
13 | C[C@@H]1CNC(=O)c2cc3cc(F)cc(-c4ccc(C(F)(F)F)cc4)c3n21 [Example 13, (R)-8-Fluoro-4-methyl-6-(4-trifluoromethyl-phenyl)-3,4-dihydro-2H-pyrazino[1,2-a]indol-1-one] | 307 °C | 0.16 µM
14 | C[C@@H]1CNC(=O)c2cc3cc(F)cc(-c4cccc(F)c4)c3n21 [Example 14, (R)-8-Fluoro-6-(3-fluoro-phenyl)-4-methyl-3,4-dihydro-2H-pyrazino[1,2-a]indol-1-one] | 232 °C | 0.34 µM
15 | O=C1NCCCn2c1cc1cc(F)cc(-c3ccccc3)c12 [Example 15, 9-Fluoro-7-phenyl-2,3,4,5-tetrahydro-[1,4]diazepino[1,2-a]indol-1-one] | 277 °C | 0.084 µM
16 | COc1ccc(-c2cc(F)cc3cc4n(c23)CCCNC4=O)cc1 [Example 16, 9-Fluoro-7-(4-methoxy-phenyl)-2,3,4,5-tetrahydro-[1,4]diazepino[1,2-a]indol-1-one] | 225.5 °C | 0.009 µM
17 | Cc1c2n(c3c(-c4ccc(Cl)nc4)cc(F)cc13)CCNC2=O [Example 144, 6-(6-Chloro-pyridin-3-yl)-8-fluoro-10-methyl-3,4-dihydro-2H-pyrazino[1,2-a]indol-1-one] |  | 0.081 µM

Further lines, with some results ahead:

Row | melting point | Compound | EC (150% of control) [1]
18 | 232.5 °C | CC1CCNC(=O)c2cc3cc(F)cc(-c4ccccc4)c3n21 (racemic) [Example 26, (RS)-9-Fluoro-5-methyl-7-phenyl-2,3,4,5-tetrahydro-[1,4]diazepino[1,2-a]indol-1-one] | 0.24 µM
19 | 235.5 °C | CC1CCNC(=O)c2cc3cc(F)cc(-c4ccc(F)cc4)c3n21 (racemic) [Example 27, (RS)-9-Fluoro-7-(4-fluoro-phenyl)-5-methyl-2,3,4,5-tetrahydro-[1,4]diazepino[1,2-a]indol-1-one] | 0.18 µM
20 | 239.5 °C | O=C1NCCCn2c1cc1cc(F)cc(-c3ccc(F)cc3)c12 [Example 17, 9-Fluoro-7-(4-fluoro-phenyl)-2,3,4,5-tetrahydro-[1,4]diazepino[1,2-a]indol-1-one] | 0.05 µM
21 | 304 °C | O=C1NCCn2c1cc1cc(F)cc(-c3ccc(F)cc3)c12 [Example 18, 8-Fluoro-6-(4-fluoro-phenyl)-3,4-dihydro-2H-pyrazino[1,2-a]indol-1-one] | 0.026 µM
22 | 224.5 °C | N#Cc1cc(-c2ccc(Cl)c(C(F)(F)F)c2)c2c(c1)cc1n2CCCNC1=O [Example 254, 7-[4-Chloro-3-(trifluoromethyl)phenyl]-1-oxo-2,3,4,5-tetrahydro-[1,4]diazepino[1,2-a]indole-9-carbonitrile] | 
23 | 252 °C | N#Cc1cc(-c2cccnc2)c2c(c1)cc1n2CCCNC1=O [Example 263, 1-Oxo-7-pyridin-3-yl-2,3,4,5-tetrahydro-[1,4]diazepino[1,2-a]indole-9-carbonitrile] | 
24 | 314.5 °C | N#Cc1cc(-c2ccc(N)nc2)c2c(c1)cc1n2CCCNC1=O [Example 264, 7-(6-Aminopyridin-3-yl)-1-oxo-2,3,4,5-tetrahydro-[1,4]diazepino[1,2-a]indole-9-carbonitrile] | 
25 | 204 °C | N#Cc1cc(-c2ccc(Cl)nc2)c2c(c1)cc1n2CCCNC1=O [Example 265, 7-(6-Chloropyridin-3-yl)-1-oxo-2,3,4,5-tetrahydro-[1,4]diazepino[1,2-a]indole-9-carbonitrile] | 
26 | 254 °C | Cc1c2n(c3c(-c4cccc(Cl)c4)cc(C#N)cc13)CCNC2=O [Example 268, 6-(3-Chlorophenyl)-10-methyl-1-oxo-3,4-dihydro-2H-pyrazino[1,2-a]indole-8-carbonitrile] | 
27 | 215 °C | CC(C)(C)c1ccc(-c2cc(C#N)cc3cc4n(c23)CCCNC4=O)cc1 [Example 270, 7-(4-tert-Butylphenyl)-1-oxo-2,3,4,5-tetrahydro-[1,4]diazepino[1,2-a]indole-9-carbonitrile] | 
28 | 264.5 °C | N#Cc1cc(-c2ccc(F)nc2)c2c(c1)cc1n2CCCNC1=O [Example 272, 7-(6-Fluoropyridin-3-yl)-1-oxo-2,3,4,5-tetrahydro-[1,4]diazepino[1,2-a]indole-9-carbonitrile] | 
29 | 277 °C | N#Cc1cc(-c2cncnc2)c2c(c1)cc1n2CCCNC1=O [Example 273, 1-Oxo-7-pyrimidin-5-yl-2,3,4,5-tetrahydro-[1,4]diazepino[1,2-a]indole-9-carbonitrile] | 
30 | 244 °C | N#Cc1cc(-c2cc(Cl)cc(Cl)c2)c2c(c1)cc1n2CCCNC1=O [Example 286, 7-(3,5-Dichlorophenyl)-1-oxo-2,3,4,5-tetrahydro-[1,4]diazepino[1,2-a]indole-9-carbonitrile] | 
31 | 347 °C | Cc1c2n(c3c(-c4cc(Cl)cc(Cl)c4)cc(C#N)cc13)CCNC2=O [Example 293, 6-(3,5-Dichlorophenyl)-10-methyl-1-oxo-3,4-dihydro-2H-pyrazino[1,2-a]indole-8-carbonitrile] | 
32 | 304 °C | Cc1c2n(c3c(-c4cncnc4)cc(C#N)cc13)CCCNC2=O [Example 299, 11-Methyl-1-oxo-7-pyrimidin-5-yl-2,3,4,5-tetrahydro-[1,4]diazepino[1,2-a]indole-9-carbonitrile] | 
